Test results taken from US5728684A, “Determination of prodrugs metabolizable by the liver and therapeutic use thereof” (priority 1994, dated 1998).
“Also recorded” adds a separate entry of the source.

How the values were obtained:
uninfected cells = details: Lewandowski et al. 1989; cited from earlier work
[1] = test system: bone marrow, gut and liver tissue; assay: Thymidine replacement in tissues of athymic nude mice; type: in vivo
Method: Mice were administered daily oral dosages of 0, 100, 250 and 500 mg/kg. Percent dThd replacement as indicative of IPdR incorporation into bone marrow, gut and liver tissue was assayed according to known methods. […] Results presented in FIG. 6 are mean percent thymidine replacement ± one standard error of the mean. N is greater or equal to 3 for each dose.

HSV-1 = details: Lewandowski et al. 1989; cited from earlier work
Xanthine oxidase = assay: Conversion of IPdR to IUdR by xanthine oxidase; type: biochemical; details: isolated from cow milk
Excerpt: (§1) In order to determine which enzyme is responsible for the catalysts of this IPdR oxidation, a series of known oxido-reductases which have similar capability to oxidize a carbon atom with an adjacent amino group into a carbonyl functionality were explored for their ability to catalyze IPdR oxidation. […] A mixed function oxidase system prepared from the microsome of rat liver a broad spectrum of substrates and is NADPH dependent. […] Alcohol dehydrogenase (which can be obtained from Sigma) and alcohol oxidase (which can be obtained from Sigma) both reside in the soluble fraction of liver cell extracts, but the conversion of IPdR to […] was not detected with purified preparation of either enzyme under the same conditions that they converted their natural substrates effectively. […]

aldehyde oxidase = assay: Michaelis constant / Vmax of 2-pyrimidinone deoxyribose analogs with the liver enzyme; type: biochemical, rat; details: pH 7.5 versus pH 9.5
Method: (§2) Rat hepatic tissue was washed with ice-cold 1.15% KCl and blotted dry. The tissue was then homogenized with a tissue homogenizer, in a volume of 1.15% KCl that was 3 times the tissue weight, to form a 25% (w/v) homogenate. The homogenate was then centrifuged at 10,000 g for 10 minutes at 4° C. The resulting supernatant was filtered through Miracloth (similar to cheese cloth) then dialyzed overnight against 50 mM Tris-HCl buffer pH 7.5 and stored at -80° C. before use. Rat hepatocytes were obtained by a perfusion technique then the cells were extracted with 10 mM phosphate buffer, pH 7.5, containing 1M KCl and dialyzed for 4 hours against 50 mM Tris-HCl buffer pH 7.5.
(§3) For the standard assay condition, the reaction mixture contained 50 mM Tris-HCl, pH 7.5, 1 mM EDTA, 180 μM of IPdR (or its analogs) and approximately 0.01 mg protein of 10,000 g supernatant of tissue homogenate in a final volume of 500 μl and the incubation was at 37° C. for 10 minutes unless specified otherwise. 300 μl of reaction mixture was removed at the end of incubation and mixed with 630 μl acetonitrile then agitated. The precipitated protein were removed by centrifugation and the supernatant was lyophilized to dryness. The samples were reconstituted to the original aliquot volume with the HPLC mobile phase buffer and analyzed on a Alltech RP-18 column. IPdR, IUdR and IU were detected at a UV absorption wavelength of 230 nm, and IPdR was also detected at a UV absorption wavelength of 335 nm. The mobile phase was 10% acetonitrile/90%mM ammonium acetate, pH 6.8 and the flow rate was 1 ml/minute. Standard curves of IPdR and IUdR were established from the integration value of known concentrations.
(§4) Several 2-pyrimidinone deoxyribose analogs were examined for the conversion to their deoxyuridine counterparts. […] Nevertheless the relative Vmax for IPdR in the reaction at pH 7.5 and pH 9.5 is the same. […] The synthetic substrates for aldehyde oxidase appear to be better than its natural substrates, N^1 -methylnicotinamide and acetaldehyde, as judged by the potency of inhibition of N^1 -methylnicotinamide and acetaldehyde to the IPdR oxidation reaction (Table IV). The rate of reactivity of the liver enzyme with different IPdR analogs follows the order EPdR, IP, IPdR, 5-bromo-2-pyrimidinone deoxyribose (BPdR) and 5-methyl-2-pyrimidinone deoxyribose (MPdR) or 5-ethyl-2-pyrimidinone deoxyribose (EtPdR) (Table V). Electronegative substituents in the 5-position seemed to increase the substrate activity in this oxidation reaction.

[2] = as above; type: biochemical, rat; details: rat, liver aldehyde oxidase
Method: as §2, §3, §4

IPdR oxidase = assay: Conversion of IPdR to IUdR by cell extracts (rat tissues); type: in vitro ADME
Method: as §2, §3
Differential fractionation centrifugation was used in an attempt to localize this IPdR conversion enzyme activity in the liver homogenate. The enzyme activity assay was performed on each fraction. […] Further purification was achieved by use of DEAE cellulose column chromatography, blue Sepharose column chromatography and glycerol gradient centrifugation in this order. This IPdR oxidase activity was purified 380 fold starting from the crude extracts of rat liver. The partially purified enzyme catalyzed IUdR synthesis at a rate of 3.8 μmoles per minute per milligram of protein at 37° C. under these conditions. The apparent molecular weight of this enzyme in both rats and humans as determined by centrifugation on a 20 to 40% glycerol gradient is approximately 280,000 dalton. Neither cofactor nor divalent cations requirement has been found for the rat liver enzyme or the human liver enzyme.
Tissue specificity of the conversion of IPdR

HSV-2 = details: Lewandowski et al. 1989; cited from earlier work
alcohol oxidase = assay: IPdR conversion by alcohol oxidase; type: biochemical; details: purified preparation
Excerpt: as §1

[3] = test system: mixed function oxidase system; assay: IPdR oxidation by mixed function oxidase system from rat liver microsomes; type: in vitro ADME; details: with or without NADPH
Excerpt: as §1

Alcohol dehydrogenase = assay: IPdR conversion by alcohol dehydrogenase; type: biochemical; details: purified preparation
Excerpt: as §1

mice = details: oral, at the dosage employed; cited from earlier work

Structure (SMILES): O=c1ncc(I)cn1[C@H]1C[C@H](O)[C@@H](CO)O1 [IPdR, 1-(2-deoxy-β-D-ribofuranosyl)-5-(iodo)-2-pyrimidinone]
- toxicity to uninfected cells (uninfected cells): not toxic
- incorporation of IUdR into liver ([1]; oral, 100, 250, 500 mg/kg daily): No incorporation of IUdR into liver was found
- percent thymidine replacement in bone marrow and gut ([1]; oral, 100, 250, 500 mg/kg daily (FIG. 6)): relatively low; also recorded: relatively small amounts
- activity against HSV-1 in cell culture (HSV-1): potent activity
- conversion of IPdR to IUdR by xanthine oxidase (Xanthine oxidase): failed to convert IPdR to IUdR
- relative Vmax (aldehyde oxidase): the same
- Km ([2]; pH 7.5): 150 µM
- Km ([2]; pH 9.5): 87 µM
- IPdR oxidase specific activity of hepatocyte extracts (IPdR oxidase; compared with whole liver extract): very similar specific activity
- Specific activity of the conversion of IPdR to IUdR (IPdR oxidase; hepatocyte (rat), 3 samples): 5-11 n mole/mg protein/min
- Specific activity of the conversion of IPdR to IUdR (IPdR oxidase; intestine (rat), 3 samples, conversion not detected): < 0.02 n mole/mg protein/min
- Specific activity of the conversion of IPdR to IUdR (IPdR oxidase; kidney (rat), 3 samples): 0.8-1.6 n mole/mg protein/min
- Specific activity of the conversion of IPdR to IUdR (IPdR oxidase; liver (rat), 5 samples): 5-15 n mole/mg protein/min
- Specific activity of the conversion of IPdR to IUdR (IPdR oxidase; lung (rat), 3 samples, conversion not detected): < 0.02 n mole/mg protein/min
- IPdR oxidase activity in extracts of kidney and spleen (IPdR oxidase; rat kidney and spleen extracts, compared with liver): much less active
- IPdR oxidase activity in lung or intestine extracts (IPdR oxidase; rat lung or intestine extracts): cannot be detected
- Specific activity of the conversion of IPdR to IUdR (IPdR oxidase; spleen (rat), 3 samples): 0.2-0.5 n mole/mg protein/min
- activity against HSV-2 in mice (HSV-2): potent activity
- conversion of IPdR by alcohol oxidase (alcohol oxidase): not detected
- IPdR oxidase activity of rat liver microsomal fraction [3]: no IPdR oxidase activity
- conversion of IPdR by alcohol dehydrogenase (Alcohol dehydrogenase): not detected
- toxicity to mice (mice): not toxic
